In US20130158112A1, “COMPOSITIONS AND METHODS FOR INHIBITING BETA AMYLOID SECRETION” (priority 2011, published 2013):
Where two headings read alike, the source gives them in different places.

Assays:
Aβ secretion = assay: Secreted total Aβ ELISA in conditioned media of H4βAPP695 wt cells; assay type: cell-based, human; settings: for inhibition at 10 µM / inhibition at 30 µM: Homo sapiens, 24 h, H4βAPP695 wt cells; for inhibition at 30 µM: read-out: Total Aβ (% decrease) 30 μM Mean; for Aβ secretion inhibiting activity (structure activity summary): in words
Method: H4βAPP695 wt cells, a human […] cell line stably transfected with a wtβAPP695 expression vector construct under the control of a CMV promoter (kindly provided by Dr. Chris Eckman from Mayo Clinic, Florida) were cultured as previously described. Twenty-four hours before drug treatment, the media was replaced with serum-free media. Cells were then incubated with drugs (dissolved in DMSO) or vehicle for 24 h for collection of conditioned media and cell lysates. For the PKC inhibitors experiment, three inhibitors were treated 30 min prior to drug challenge. Primary cortical neurons were prepared from embryonic day 18 APP and presenilin 1 (APPswe, PSEN1dE9) transgenic mice on the C57BL/6 genetic background (Jackson Laboratories, strain no. 5864) as previously described. THLE-3 human hepatoma cells (from ATCC) were plated in 24-well plates that were precoated with 10 μg/mL bovine serum albumin, 10 μg/mL fibronectin, and 30 μg/mL bovine type I collagen. The cells were grown in BEGM media (Clonetics) until confluent and treated with drugs at 20 μM for 24 h. This conditioned media was harvested, diluted 1:1 in serum-free medium, and incubated with H4βAPP695 wt cells for 24 h prior to analysis of secreted Aβ, which was compared to the effect of 10 μM drug treatments without prior incubation with the THLE-3 cells. Caco-2 cells (ATCC) were plated in 12-well plates with Transwell inserts (Costar) at 70000 cells per well and grown for 21 days. The media volume of the apical and basal chambers was 0.5 and 1.5 mL, respectively. Transepithelial resistance was measured in each well and found to be >160 Ω/cm^2. Drugs at 40 μM and 20 μg/mL of lucifer yellow were added in serum-free medium to the apical chamber. Four hours later, the basal chamber media was harvested and used to measure lucifer yellow fluorescence to confirm monolayer integrity as well as for treatment of H4βAPP695 wt cells for 24 h prior to analysis of secreted Aβ, which was compared to the effect of direct addition of 10 μM of the corresponding drug.

H4βAPP695 wt cells = assay: Cytotoxicity by total cell protein content (BCA) of H4βAPP695 wt cells; settings: cytotoxicity
Method: Cells were washed with cold phosphate buffered saline (PBS) and lysed on ice by vigorous mixing over 15 min with RIPA buffer containing 50 mM Tris-HCl (pH 8.0), 150 mM sodium chloride, 1% NP-40, 0.5% sodium deoxycholate, and 0.1% SDS, supplemented with 10% protease inhibitor cocktail and 2 mM PMSF. After centrifugation at 14000 g for 30 min to remove nuclei and other debris at 4° C., the protein content of the supernatants was measured using the BCA assay kit (Pierce).
The initial screen was performed in 96-well plates with drugs distributed by the hanging drop method yielding estimated drug levels of 10-25 μM. Total Aβ levels in the 24 h conditioned media were measured by a sandwich ELISA assay, and cytotoxicity was assessed by methylene blue staining of the cells in the wells, as previously described.

[1] = relative to vehicle treated control cells, read-out: % β Decrease
[2] = read-out: Total Aβ (% decrease) 10 μM Mean

O=C(NCCSCc1ccc(Cl)cc1)c1ccc(Cl)cc1Cl [Compound 2]
inhibition at 10 µM (Aβ secretion; [1]): 5.3%

O=C(NCCSCc1cccc(Cl)c1)c1ccccc1Cl [Compound 3]
inhibition at 10 µM (Aβ secretion; [1]): 4.7%

O=C(NCCCCNC(=O)c1ccccc1Br)c1ccccc1Br [Compound 4]
inhibition at 10 µM (Aβ secretion; [1]): 7.9%

O=C(NCCSCc1ccc(Cl)c(Cl)c1)c1ccccc1Cl [Compound 5]
inhibition at 10 µM (Aβ secretion; [1]): 0.7%

O=C(NCCSCc1ccc(Cl)c(Cl)c1)c1ccc(Cl)cc1Cl [Compound 6]
inhibition at 10 µM (Aβ secretion; [1]): 4.3%

COCCCNC(=O)c1c(Cl)cccc1Cl [Compound 8]
inhibition at 10 µM (Aβ secretion; [1]): 6.9%

O=C(NCCNC(=O)c1c(Cl)cccc1Cl)c1c(Cl)cccc1Cl [Compound 13]
inhibition at 10 µM (Aβ secretion; [1]): 7.6%

O=C(NCCSCc1ccccc1Cl)c1ccccc1Cl [Compound 16]
inhibition at 10 µM (Aβ secretion; [1]): 4%

O=C(NCCSCc1ccc(Cl)cc1)c1ccccc1Cl [Compound 17]
inhibition at 10 µM (Aβ secretion; [1]): -12%

O=C(NCCSCc1ccc(F)cc1)c1c(F)cccc1Cl [Compound 22]
inhibition at 10 µM (Aβ secretion; [1]): 27.3%

Oc1c(Cl)cc(Cl)cc1/C=N/CCSCc1ccccc1Cl [Compound 23]
inhibition at 10 µM (Aβ secretion; [1]): 5.3%

O=C(NCCS(=O)(=O)Cc1ccc(F)cc1)c1c(F)cccc1Cl [Compound 24]
inhibition at 10 µM (Aβ secretion; [1]): 39.2%

O=C(NCCCCNC(=O)c1ccccc1F)c1ccccc1F [Compound 25]
inhibition at 10 µM (Aβ secretion; [1]): 0.2%

COc1ccc(CSCCNC(=O)c2c(Cl)cccc2Cl)cc1 [Compound 26, 2,6-Dichloro-N-[2-(4-methoxy-benzylsulfanyl)-ethyl]-benzamide]
inhibition at 10 µM (Aβ secretion; [2]): 1.6% | inhibition at 30 µM (Aβ secretion): 1.1% | Aβ secretion inhibiting activity (structure activity summary) (Aβ secretion): loss of activity | melting point: 80 to 81 °C | Cell protein (% decrease) 10 μM Mean (H4βAPP695 wt cells): 6.7% | Cell protein (% decrease) 30 μM Mean (H4βAPP695 wt cells): 12.7%

O=C(NCCSCc1ccc(O)cc1)c1c(Cl)cccc1Cl [Compound 28, 2,6-Dichloro-N-[2-(4-hydroxy-benzylsulfanyl)-ethyl]-benzamide]
inhibition at 10 µM (Aβ secretion; [2]): 13.1% | inhibition at 30 µM (Aβ secretion): 56.7% | Aβ secretion inhibiting activity (structure activity summary) (Aβ secretion): loss of activity | melting point: 138 to 140 °C | Cell protein (% decrease) 10 μM Mean (H4βAPP695 wt cells): 8.7% | Cell protein (% decrease) 30 μM Mean (H4βAPP695 wt cells): 4.4%

COc1cccc(CS(=O)(=O)CCNC(=O)c2c(Cl)cccc2Cl)c1 [Compound 30, 2,6-dichloro-N-[2-(3-methoxy-phenylmethanesulfonyl)-ethyl]-benzamide]
inhibition at 10 µM (Aβ secretion; [2]): 5.3% | inhibition at 30 µM (Aβ secretion): 4.9% | Aβ secretion inhibiting activity (structure activity summary) (Aβ secretion): No tested substitutions in the linker region were well tolerated | Cell protein (% decrease) 10 μM Mean (H4βAPP695 wt cells): 1.2% | Cell protein (% decrease) 30 μM Mean (H4βAPP695 wt cells): 8.9%

O=C(NCCS(=O)(=O)Cc1cccc(O)c1)c1c(Cl)cccc1Cl [Compound 31, 2,6-Dichloro-N-[2-(3-hydroxy-phenylmethanesulfonyl)-ethyl]-benzamide]
inhibition at 10 µM (Aβ secretion; [2]): -10.1% | inhibition at 30 µM (Aβ secretion): 9.6% | Aβ secretion inhibiting activity (structure activity summary) (Aβ secretion): No tested substitutions in the linker region were well tolerated | melting point: 139 to 141 °C | Cell protein (% decrease) 10 μM Mean (H4βAPP695 wt cells): 7.7% | Cell protein (% decrease) 30 μM Mean (H4βAPP695 wt cells): 4.4%

COc1cccc(C[S+]([O-])CCNC(=O)c2c(Cl)cccc2Cl)c1 (centres unmarked) [Compound 32, 2,6-dichloro-N-[2-(3-methoxy-phenylmethanesulfinyl)-ethyl]-benzamide]
inhibition at 10 µM (Aβ secretion; [2]): -13.6% | inhibition at 30 µM (Aβ secretion): -15.8% | Aβ secretion inhibiting activity (structure activity summary) (Aβ secretion): No tested substitutions in the linker region were well tolerated | Cell protein (% decrease) 10 μM Mean (H4βAPP695 wt cells): 1.6% | Cell protein (% decrease) 30 μM Mean (H4βAPP695 wt cells): 9.2%

O=C(NCC[S+]([O-])Cc1cccc(O)c1)c1c(Cl)cccc1Cl (centres unmarked) [Compound 33, 2,6-Dichloro-N-[2-(3-hydroxy-phenylmethanesulfinyl)-ethyl]-benzamide]
inhibition at 10 µM (Aβ secretion; [2]): -23.7% | inhibition at 30 µM (Aβ secretion): 15.9% | Aβ secretion inhibiting activity (structure activity summary) (Aβ secretion): No tested substitutions in the linker region were well tolerated | melting point: 165 to 166 °C | Cell protein (% decrease) 10 μM Mean (H4βAPP695 wt cells): 2.8% | Cell protein (% decrease) 30 μM Mean (H4βAPP695 wt cells): 4.4%

COc1cccc(CSCCNC(=O)c2c(OC)cccc2OC)c1 [Compound 34, 2,6-Dimethoxy-N-[2-(3-methoxy-benzylsulfanyl)-ethyl]-benzamide]
inhibition at 10 µM (Aβ secretion; [2]): 6.2% | inhibition at 30 µM (Aβ secretion): -0.6% | Aβ secretion inhibiting activity (structure activity summary) (Aβ secretion): not well tolerated | melting point: 41 to 43 °C | Cell protein (% decrease) 10 μM Mean (H4βAPP695 wt cells): 0.5% | Cell protein (% decrease) 30 μM Mean (H4βAPP695 wt cells): 3.9%

O=C(NCCSCc1cccc(O)c1)c1c(O)cccc1O [Compound 35, 2,6-Dihydroxy-N-[2-(3-hydroxy-benzylsulfanyl)-ethyl]-benzamide]
inhibition at 10 µM (Aβ secretion; [2]): -22.5% | inhibition at 30 µM (Aβ secretion): -25.2% | Aβ secretion inhibiting activity (structure activity summary) (Aβ secretion): not well tolerated | melting point: 61 to 62 °C | Cell protein (% decrease) 10 μM Mean (H4βAPP695 wt cells): 10.5% | Cell protein (% decrease) 30 μM Mean (H4βAPP695 wt cells): 14.3%

COc1cccc(OC)c1C(=O)NCCSCc1cccc(Cl)c1 [Compound 36, N-[2-(3-Chloro-benzylsulfanyl)-ethyl]-2,6-dimethoxy-benzamide]
inhibition at 10 µM (Aβ secretion; [2]): -13.1% | inhibition at 30 µM (Aβ secretion): 11.2% | Aβ secretion inhibiting activity (structure activity summary) (Aβ secretion): not well tolerated | melting point: 90 to 91 °C | Cell protein (% decrease) 10 μM Mean (H4βAPP695 wt cells): 7.1% | Cell protein (% decrease) 30 μM Mean (H4βAPP695 wt cells): −0.6%

N=C(NO)c1cccc(CSCCNC(=O)c2c(Cl)cccc2Cl)c1 [Compound 39, 2,6-Dichloro-N-(2-[3-(N-hydroxycarbamimidoyl)-benzylsulfanyl]-ethyl)-benzamide]
inhibition at 10 µM (Aβ secretion; [2]): -1.5% | inhibition at 30 µM (Aβ secretion): 1.6% | Aβ secretion inhibiting activity (structure activity summary) (Aβ secretion): did not yield good activity | Cell protein (% decrease) 10 μM Mean (H4βAPP695 wt cells): 9.2% | Cell protein (% decrease) 30 μM Mean (H4βAPP695 wt cells): 5.9%

Clc1cccc(CSCCNCc2c(Cl)cccc2Cl)c1 [Compound 57, [2-(3-Chloro-benzylsulfanyl)-ethyl]-(2,6-dichloro-benzyl)-amine]
inhibition at 10 µM (Aβ secretion; [2]): 45.2% | inhibition at 30 µM (Aβ secretion): 45.6% | Aβ secretion inhibiting activity (structure activity summary) (Aβ secretion): No tested substitutions in the linker region were well tolerated | Cell protein (% decrease) 10 μM Mean (H4βAPP695 wt cells): −3.6% | Cell protein (% decrease) 30 μM Mean (H4βAPP695 wt cells): 6.6%

O=C(NCCSCc1cccc(O)c1O)c1c(Cl)cccc1Cl [Compound 58, 2,6-Dichloro-N-[2-(2,3-dihydroxy-benzylsulfanyl)-ethyl]-benzamide]
inhibition at 10 µM (Aβ secretion; [2]): -4.3% | inhibition at 30 µM (Aβ secretion): 33.1% | Aβ secretion inhibiting activity (structure activity summary) (Aβ secretion): lost activity | Cell protein (% decrease) 10 μM Mean (H4βAPP695 wt cells): −4.8% | Cell protein (% decrease) 30 μM Mean (H4βAPP695 wt cells): 14%

NC(=O)c1c(Cl)cccc1CSCC(=O)c1c(Cl)cccc1Cl [Compound 61, 2-Chloro-6-((2-(2,6-dichlorophenyl)-2-oxoethylthio)methyl)benzamide]
inhibition at 10 µM (Aβ secretion; [2]): 44.7% | inhibition at 30 µM (Aβ secretion): 49.7% | Aβ secretion inhibiting activity (structure activity summary) (Aβ secretion): could be tolerated | Cell protein (% decrease) 10 μM Mean (H4βAPP695 wt cells): 2.5% | Cell protein (% decrease) 30 μM Mean (H4βAPP695 wt cells): −5.6%

O=C(NCCSCc1ccccc1)c1ccccc1 [Compound 64, N-(2-Benzylsulfanyl-ethyl)-benzamide]
inhibition at 10 µM (Aβ secretion; [2]): -5.7% | inhibition at 30 µM (Aβ secretion): 5.5% | Cell protein (% decrease) 10 μM Mean (H4βAPP695 wt cells): 0.7% | Cell protein (% decrease) 30 μM Mean (H4βAPP695 wt cells): −4.1%

O=C(NCCSCc1cccc(OCCOCCO)c1)c1c(Cl)cccc1Cl [Compound 70, 2,6-Dichloro-N-(2-(3-[2-(2-hydroxy-ethoxy)-ethoxy]-benzylsulfanyl)-ethyl)-benzamide]
inhibition at 10 µM (Aβ secretion; [2]): 17.4% | inhibition at 30 µM (Aβ secretion): 24.3% | Aβ secretion inhibiting activity (structure activity summary) (Aβ secretion): did not yield good activity | Cell protein (% decrease) 10 μM Mean (H4βAPP695 wt cells): −7.3% | Cell protein (% decrease) 30 μM Mean (H4βAPP695 wt cells): 6.1%

Cc1cccc(C)c1C(=O)NCCSCc1cccc(Cl)c1 [Compound 75, N-[2-(3-chloro-benzylsulfanyl)-ethyl]-2,6-dimethyl-benzamide]
inhibition at 10 µM (Aβ secretion; [2]): 29.5% | inhibition at 30 µM (Aβ secretion): 51.6% | Aβ secretion inhibiting activity (structure activity summary) (Aβ secretion): not well tolerated | Cell protein (% decrease) 10 μM Mean (H4βAPP695 wt cells): 0.9% | Cell protein (% decrease) 30 μM Mean (H4βAPP695 wt cells): −9.4%

O=C(Cc1c(Cl)cccc1Cl)NCCSCc1cccc(Cl)c1 [Compound 78, N-[2-(3-chloro-benzylsulfanyl)-ethyl]-2-(2,6-dichloro-phenyl)-acetamide]
inhibition at 10 µM (Aβ secretion; [2]): 6.7% | inhibition at 30 µM (Aβ secretion): 13.5% | Aβ secretion inhibiting activity (structure activity summary) (Aβ secretion): No tested substitutions in the linker region were well tolerated | Cell protein (% decrease) 10 μM Mean (H4βAPP695 wt cells): −1.3% | Cell protein (% decrease) 30 μM Mean (H4βAPP695 wt cells): −.07%
